# According to PubChem BioAssay (NCI):
#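 GI50: concentration for 50% inhibition of growth. TGI denotes the concentration required for complete inhibition of growth.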
# How the values were obtained:
# Test in all cases: growth of human tumour cells (NCI), 384-well format
# [1] = test system: CAKI-1 renal
# [2] = test system: CCRF-CEM leukemia
# [3] = test system: DU-145 prostate
# [4] = test system: HCT-116 colon
# [5] = test system: HL-60(TB) leukemia
# [6] = test system: K-562 leukemia
# [7] = test system: LOX IMVI melanoma
# [8] = test system: MALME-3M melanoma
# [9] = test system: MDA-MB-468 breast
# [10] = test system: MOLT-4 leukemia
# [11] = test system: OVCAR-8 ovarian
# [12] = test system: RPMI-8226 leukemia
# [13] = test system: SK-OV-3 ovarian
# [14] = test system: SW-620 colon
# [15] = test system: 786-0 renal
# [16] = test system: A498 renal
# [17] = test system: A549 NSCLC
# [18] = test system: ACHN renal
# [19] = test system: BT-549 breast
# [20] = test system: COLO 205 colon
# [21] = test system: EKVX NSCLC
# [22] = test system: HCC-2998 colon
# [23] = test system: HCT-15 colon
# [24] = test system: HOP-62 NSCLC
# [25] = test system: HOP-92 NSCLC
# [26] = test system: HS 578T breast
# [27] = test system: HT29 colon
# [28] = test system: IGROV1 ovarian
# [29] = test system: KM12 colon
# [30] = test system: M14 melanoma
# [31] = test system: MCF7 breast
# [32] = test system: MDA-MB-231 breast
# [33] = test system: MDA-MB-435 melanoma
# [34] = test system: NCI-H226 lung
# [35] = test system: NCI-H23 lung
# [36] = test system: NCI-H322M lung
# [37] = test system: NCI-H460 NSCLC
# [38] = test system: NCI-H522 lung
# [39] = test system: NCI/ADR-RES ovarian
# [40] = test system: OVCAR-3 ovarian
# [41] = test system: OVCAR-4 ovarian
# [42] = test system: OVCAR-5 ovarian
# [43] = test system: PC-3 prostate
# [44] = test system: SF-268 CNS
# [45] = test system: SF-295 CNS
# [46] = test system: SF-539 CNS
# [47] = test system: SK-MEL-28 melanoma
# [48] = test system: SK-MEL-5 melanoma
# [49] = test system: SN12C renal
# [50] = test system: SNB-19 CNS
# [51] = test system: SR leukemia
# [52] = test system: T-47D breast
# [53] = test system: TK-10 renal
# [54] = test system: U251 glioblastoma
# [55] = test system: UACC-257 melanoma
# [56] = test system: UACC-62 melanoma
# [57] = test system: UO-31 renal
smiles,measurement,setting,value
CN(C)/N=N/c1nc[nH]c1C(N)=O,GI50,[1],34.7 µM
same,GI50,[2],45.5 µM
same,GI50,[3],83.8 µM
same,GI50,[4],66.3 µM
same,GI50,[5],6.42 µM
same,GI50,[6],44.6 µM
same,GI50,[7],29.2 µM
same,GI50,[8],79.5 µM
same,GI50,[9],30.4 µM
same,GI50,[10],6.9 µM
same,TGI,[10],21.7 µM
same,GI50,[11],69.9 µM
same,GI50,[12],18.3 µM
same,GI50,[13],95.3 µM
same,GI50,[14],97.4 µM
Cc1nc(Nc2ncc(C(=O)Nc3c(C)cccc3Cl)s2)cc(N2CCN(CCO)CC2)n1,GI50,[15],0.0357 µM
same,TGI,[15],2.5 µM
same,GI50,[16],0.251 µM
same,TGI,[16],2.75 µM
same,GI50,[17],0.0275 µM
same,TGI,[17],12.6 µM
same,GI50,[18],0.0172 µM
same,TGI,[18],0.234 µM
same,GI50,[19],0.0327 µM
same,TGI,[19],1.26 µM
same,GI50,[1],0.0277 µM
same,TGI,[1],0.225 µM
same,GI50,[20],3.8 µM
same,TGI,[20],10.7 µM
same,GI50,[3],0.227 µM
same,TGI,[3],4.85 µM
same,GI50,[21],0.724 µM
same,TGI,[21],15.6 µM
same,GI50,[22],5.08 µM
same,TGI,[22],16.8 µM
same,GI50,[4],4.83 µM
same,TGI,[4],17.4 µM
same,GI50,[23],1.03 µM
same,TGI,[23],13.7 µM
same,GI50,[5],7.23 µM
same,TGI,[5],18.1 µM
same,GI50,[24],0.0648 µM
same,TGI,[24],12.2 µM
same,GI50,[25],0.0372 µM
same,TGI,[25],2.04 µM
same,GI50,[26],0.0129 µM
same,TGI,[26],0.0494 µM
same,GI50,[27],2.02 µM
same,TGI,[27],13.3 µM
same,TGI,[28],0.0375 µM
same,GI50,[29],7.3 µM
same,TGI,[29],19.8 µM
same,GI50,[7],0.0277 µM
same,TGI,[7],1.25 µM
same,GI50,[30],2.86 µM
same,TGI,[30],8.23 µM
same,GI50,[8],3.19 µM
same,TGI,[8],8.82 µM
same,GI50,[31],10 µM
same,TGI,[31],21.7 µM
same,GI50,[32],0.0251 µM
same,TGI,[32],1.04 µM
same,GI50,[33],9.25 µM
same,TGI,[33],20.8 µM
same,GI50,[9],0.695 µM
same,TGI,[9],4.51 µM
same,GI50,[10],1 µM
same,TGI,[10],3 µM
same,GI50,[34],0.0247 µM
same,TGI,[34],2.64 µM
same,GI50,[35],2.59 µM
same,TGI,[35],10.7 µM
same,GI50,[36],0.0381 µM
same,TGI,[36],0.973 µM
same,GI50,[37],9.52 µM
same,TGI,[37],21.4 µM
same,GI50,[38],0.0135 µM
same,TGI,[38],0.098 µM
same,GI50,[39],1.87 µM
same,TGI,[39],14.7 µM
same,GI50,[40],0.0151 µM
same,TGI,[40],0.419 µM
same,GI50,[41],0.0588 µM
same,TGI,[41],0.85 µM
same,GI50,[42],0.041 µM
same,TGI,[42],6.27 µM
same,GI50,[11],0.0643 µM
same,TGI,[11],2.97 µM
same,GI50,[43],3.12 µM
same,TGI,[43],17.5 µM
same,GI50,[12],2.11 µM
same,TGI,[12],5.5 µM
same,GI50,[44],0.0303 µM
same,TGI,[44],0.128 µM
same,GI50,[45],2.59 µM
same,TGI,[45],18.9 µM
same,GI50,[46],0.0482 µM
same,TGI,[46],1.64 µM
same,GI50,[47],5.62 µM
same,TGI,[47],18.7 µM
same,GI50,[48],4.26 µM
same,TGI,[48],15.1 µM
same,GI50,[13],0.0496 µM
same,TGI,[13],3.14 µM
same,GI50,[49],0.0139 µM
same,TGI,[49],3.39 µM
same,GI50,[50],8.69 µM
same,TGI,[50],21.7 µM
same,GI50,[51],5.44 µM
same,TGI,[51],8.78 µM
same,GI50,[14],15.1 µM
same,TGI,[14],28.6 µM
same,GI50,[52],0.176 µM
same,TGI,[52],15.1 µM
same,GI50,[53],0.0259 µM
same,TGI,[53],0.164 µM
same,GI50,[54],4.2 µM
same,TGI,[54],17.8 µM
same,GI50,[55],5.53 µM
same,TGI,[55],18.2 µM
same,GI50,[56],2.05 µM
same,TGI,[56],10.1 µM
same,GI50,[57],0.057 µM
same,TGI,[57],0.84 µM
